Values quoted from earlier work in patent publication US12324431B2, “Compositions and methods for scalable production and delivery of biologicals” (priority 2017, dated 2025).

System: insects
Details: potency similar to imidacloprid

Substance: orally active insecticidal peptide-1 [OAIP-1]
- toxicity to insects: highly toxic
